Results as given in US6946132B2, “Vaccine compositions and methods useful in inducing immune protection against arthritogenic peptides involved in the pathogenesis of rheumatoid arthritis” (The Regents of the University of California, priority 1994, dated 2005).

How the values were obtained:
[1] = system: lymphocytes from patients with early stage RA; assay: Proliferation of lymphocytes from RA patients exposed to RA susceptibility sequence peptides (stimulation index); format: cell-based, human; conditions: for response of RA patient blood lymphocytes to wild-type peptide (dnaJp1) relative to response to mutant peptide (dnaJpV): PBL's of RA patients
Excerpt: FIG. 2 quantifies proliferation of cultured lymphocytes from adult RA and juvenile RA (JRA) patients following exposure of the cells to synthetic dnaJp1 (amino acid sequence […]; SEQ. ID. No. 4) or a mutant dnaJ peptide having the amino acid sequence […] (“dnaJpV”; SEQ. ID. No. 5). The control culture tested consisted of lymphocytes obtained from adults without RA (“normals”). The responses shown by bars in the graph of FIG. 2 are expressed in terms of a lymphocyte stimulation index; i.e., (CPM detected in cultures with dnaJ)/(CPM detected in cultures without dnaJ).
(§1) Lymphocytes from patients with early untreated rheumatoid arthritis (RA) were obtained from blood (peripheral blood lymphocytes, or “PBL's”) for from synovial fluids using standard aseptic techniques. The cells were incubated for 7 days with purified recombinant E. coli dnaJ (10 μg/ml, obtained as described in Example I) in RPMI 1640 medium supplemented with 10% prescreened human AB type serum. Lymphocytes from 10 control subjects (i.e., persons without RA) were treated similarly. Proliferation during the last 16 hours of culture was expressed as a stimulation index=cpm in cultures with dnaJ/cpm in cultures without dnaJ.
Lymphocytes from patients with early stage RA were contacted with one of two RA susceptibility sequence peptides according to the protocol described in Example II. The peptides used were either a 15 amino acid synthetic peptide having the wild-type sequence […] or a 15 amino acid synthetic mutant peptide having the sequence […].

[2] = system: purified HLA MHC Class II epitopes; assay: ELISA binding of biotinylated dnaJ peptides to immobilized HLA molecules; set-up: species or system human; conditions: ELISA absorption at 405 nm; FIG. 5
Excerpt: FIG. 5 is a table comparing the binding efficiencies of several dnaJ peptides for purified HLA MHC Class II epitopes. Binding was detected by ELISA between biotinylated dnaJ peptides and immobilized HLA molecules. The results are expressed in the table as absorption units at 405 nm. The peptides tested were: dnaJp1 (SEQ. ID. No. 4), dnaJpV (SEQ. ID. No. 5), dnaJp2 (SEQ. ID. No. 6), S1 (SEQ. ID. No. 7) and S6 (SEQ. ID. No. 8). S1 and […] are synthetic peptides whose amino acid sequence corresponds to the sequence of known HLA DR antigens.

[3] = system: anti-dnaJ antibodies in sera from patients with early stage RA; assay: Inhibition of antibody binding to dnaJ (ELISA, sera preincubated with peptide); set-up: species or system human; conditions: sera diluted 1:100, preincubated overnight at 4° C. with peptide; % inhibition; FIG. 3
Procedure: FIG. 3 depicts the results of an inhibition study for inhibition of the activity of anti-dnaJ antibodies produced in separate sera samples from 51 early stage RA patients by intact dnaJ. The percent inhibition shown by bars in the graph of FIG. 3 is expressed in terms of the formula: % inhibition=100 I-OD460 with rdnaJ)(OD460 without rdnaJ) The control sera were obtained from humans without RA.
Microtiter plates were coated with recombinant dnaJ (10 μg/ml). Either sera obtained from patients with early stage RA or sera from control subjects were diluted 1:100 in borate buffered saline. Half of each specimen was incubated overnight at 4° C. with the wild-type dnaJ peptide described in Example III. Then the paired serum specimens were added to the dnaJ coated plates.
After 4 hours incubation, antibody binding was detected with alkaline phosphatase labelled goat anti-human IgG; levels of detected antibody binding were determined according to the following formula: % inhibition=100 (1-OD460with wild-type peptide)(OD460without wild-type peptide)

[4] = system: lymphocytes from patients with early untreated rheumatoid arthritis; assay: Proliferation of lymphocytes from early stage RA patients exposed to rdnaJ (stimulation index); format: cell-based, human; conditions: rdnaJ 10 μg/ml, 7 days, FIG. 1
Excerpt: FIG. 1 quantifies proliferation of cultured lymphocytes from 22 patients with early, untreated RA (“early stage” RA) following exposure of the cells to intact bacterial dnaJ protein. The responses shown by bars in the graph of FIG. 1 are expressed in terms of a lymphocyte stimulation index; i.e., (CPM detected in cultures with dnaJ)/(CPM detected in cultures without dnaJ). “CPM” refers to counts-per-minute. The control culture tested consisted of lymphocytes obtained from humans without RA.
as §1

Molecule	response of RA patient PBL's to wild-type peptide relative to response of lymphocytes from control subjects to wild-type peptide ([1]; FIG. 2)	response of RA patient blood lymphocytes to wild-type peptide (dnaJp1) relative to response to mutant peptide (dnaJpV) ([1]; FIG. 2)	response of RA patient blood lymphocytes to wild-type peptide (dnaJp1) relative to response to mutant peptide (dnaJpV) ([1]; FIG. 2, listed as wild-type peptide)	binding to HLA MHC Class II molecule epitopes relative to human HLA Dw4 peptides (S1 and S6) [2]	inhibition of antibody binding to rdnaJ in RA sera relative to inhibition in control sera [3]	proliferation response of PBL's relative to response of control subject lymphocytes ([4]; PBL's from 14 early stage RA patients)	proliferation response of synovial fluid lymphocytes relative to response of control subject lymphocytes ([4]; synovial fluid lymphocytes from 8 early stage RA patients)
QKRAAYDQYGHAAFE (Synthetic dnaJp1)	approximately 9 times	~10 times	more than 5 times	≥ 100 times	~3 times		
rdnaJ: recombinant E. coli dnaJ heat shock protein, expressed and affinity purified, 41 kD (protein, UniProt P08622 2-376, looked up) Chaperone protein DnaJ: AKQDYYEILGVSKTAEEREIRKAYKRLAMKYHPDRNQGDKEAEAKFKEIKEAYEVLTDSQKRAAYDQYGHAAFEQGGMGGGGFGGGADFSDIFGDVFGDIFGGGRGRQRAARGADLRYNMELTLEEAVRGVTKEIRIPTLEECDVCHGSGAKPGTQPQTCPTCHGSGQVQMRQGFFAVQQTCPHCQGRGTLIKDPCNKCHGHGRVERSKTLSVKIPAGVDTGDRIRLAGEGEAGEHGAPAGDLYVQVQVKQHPIFEREGNNLYCEVPINFAMAALGGEIEVPTLDGRVKLKVPGETQTGKLFRMRGKGVKSVRGGAQGDLLCRVVVETPVGLNERQKQLLQELQESFGGPTGEHNSPRSKSFFDGVKKFFDDLTR						approximately 3.6 times	approximately 2.3 times
